pIC50: −log10 of the molar value. In brackets after ≈: the same amount, converted by molar mass.
Columns and labels:
B16 melanoma cells = assay: Invasion of B16 melanoma cells (Matrigel invasion); format: cell-based; conditions: for Relative Rate of Invasion (%): control 100; for No. of Cells Invaded: control 420.7 ± 15.6
Experimental: MT70646 (KCTC 0916BP) against the invasion of B16 melanoma cells through the synthetic basal membranes. […]
BioCoat invasion chamber (precoated Matrigel) was swelled for 30 min by serum-free DMEM and the chamber was placed into the well of 24 well plate which contains 600 μL of HT 1080 conditioned medium. And then 450 μL of melanoma cell suspension (4.5×10^3 cells) in DMEM medium containing 0.5% albumin was added into the chamber. After adding 50 μL of test sample, the chamber was incubated for 22–24 hr at 37° C. in a 5% CO2 atmosphere. And the filter of chamber was detached and fixed with methanol. After staining the filter with 5% crystal violet and the cells on the upper surface of the filters were removed by wiping them with a cotton swab. The cells invaded through the Matrigel and filter to the lower surface were counted under a microscope.

[1] = test system: human umbilical vein enothelial cell (HUVEC); assay: Angiogenesis: HUVEC tube formation on Matrigel; format: cell-based; conditions: 18 hr, read-out: Inhibitory activity against the angiogenesis (tube formation); for inhibition at 1 µg/mL: 1 μg/mL; for inhibition at 3 µg/mL: 3 μg/mL; for inhibition at 10 µg/mL: 10 μg/mL
Experimental: After thawing Matrigel on ice, 40 μL of the Matrigel was added into each wells of a 96 well plate and placed for 30 min at 37° C. to solidify the Matrigel. Then, 180 μL of human umbilical vein enothelial cell (HUVEC) suspension (2×10^4 cells) was added made into each well of the solidified Matrigel and incubated for 18 hr in a 5% CO2 atmosphere at 37° C. The degree of tube formation was observed by microscope.

heparinase = target: T1, heparinase (Pedobacter heparinus, UniProt Q05819); assay: Inhibition of heparinase (heparin / antithrombin III / factor Xa chromogenic assay); format: biochemical, Flavobacterium heparinum
T1 construct: the heparinase was isolated from Flavobacterium heparinum; purchased Sigma Co. Ltd. (U.S.A.); host or cells: isolated from Flavobacterium heparinum
Experimental: To 17 μL of reaction buffer (14 mM sodium acetate and 1.4 mM CaCl2, pH 7.0) containing 10 ng of heparin were added 3 μL of test sample along with 0.2 unit of heparinase and placed at room temperature for 15 min. Then, 25 μL of antithrombin III solution was added and allowed to react for 2 min at room temperature and added with 25 μL of factor Xa solution. In one minute, 25 μL of factor Xa substrate was added to react for 5–10 min and then terminated the reaction by adding 25 μL of glacial acetic acid. The light absorbency was measured at 410 nm. The rate of enzyme inhibition was calculated as in the following equation 1, wherein IC50 was the concentration of the inhibitor when the rate of enzyme inhibition reached 50%. Inhibition (%)=(A−C)/(A−B)×100 [Equation 1]
In the above equation 1, A represents the light absorbance of the reagent after reaction when the inhibitor was not added, B represents the light absorbance of the reagent after reaction when enzyme solution was not added, and C represents the light absorbance of the reagent after reaction when the inhibitor was added.
The heparinase used in this experiment was purchased from Sigma Co. Ltd. (U.S.A.), wherein the heparinase was isolated from Flavobacterium heparinum.

[2] = target: T2, heparanase derived from human platelets (Homo sapiens, UniProt Q9Y251); assay: Inhibition of heparanase (3H-heparan sulfate degradation); format: biochemical; conditions: 10 ng heparanase, 30 min at 37° C., pH 5.1; read-out: IC50 against heparanase
T2 construct: 10 ng of heparanase derived from human platelets; from tissue; host or cells: human platelets
T2 sequence (Q9Y251 158-543 limits assumed): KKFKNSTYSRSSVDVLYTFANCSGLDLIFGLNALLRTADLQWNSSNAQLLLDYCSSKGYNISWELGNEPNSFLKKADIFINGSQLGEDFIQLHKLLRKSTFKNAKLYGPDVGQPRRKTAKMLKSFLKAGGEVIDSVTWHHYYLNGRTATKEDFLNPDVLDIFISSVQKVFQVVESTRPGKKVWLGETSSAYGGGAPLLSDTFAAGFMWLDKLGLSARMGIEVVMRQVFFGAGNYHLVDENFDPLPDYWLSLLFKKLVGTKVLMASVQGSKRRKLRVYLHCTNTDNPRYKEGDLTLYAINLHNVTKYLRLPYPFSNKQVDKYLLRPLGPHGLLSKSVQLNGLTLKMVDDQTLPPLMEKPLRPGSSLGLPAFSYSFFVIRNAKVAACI
T2 sequence (Q9Y251 36-109 limits assumed): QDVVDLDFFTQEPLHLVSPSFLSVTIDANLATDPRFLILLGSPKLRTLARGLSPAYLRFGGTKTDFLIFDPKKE
Source text: After the reaction, the reaction mixture was passed through a column filled with HRG-Sepharose beads and eluted out the degraded heparan sulfate by heparanase to measure the radioactivity.

Solubility in solvents = format: physicochemical
Source text: The results of infrared (IR) absorption spectrum; ^1H-NMR and ^13C-NMR spectrum; and HMBC NMR spectrum analyses are shown in the Tables 2 & 3 and FIGS. 1–3.

T1 sequence (Q05819 22-384): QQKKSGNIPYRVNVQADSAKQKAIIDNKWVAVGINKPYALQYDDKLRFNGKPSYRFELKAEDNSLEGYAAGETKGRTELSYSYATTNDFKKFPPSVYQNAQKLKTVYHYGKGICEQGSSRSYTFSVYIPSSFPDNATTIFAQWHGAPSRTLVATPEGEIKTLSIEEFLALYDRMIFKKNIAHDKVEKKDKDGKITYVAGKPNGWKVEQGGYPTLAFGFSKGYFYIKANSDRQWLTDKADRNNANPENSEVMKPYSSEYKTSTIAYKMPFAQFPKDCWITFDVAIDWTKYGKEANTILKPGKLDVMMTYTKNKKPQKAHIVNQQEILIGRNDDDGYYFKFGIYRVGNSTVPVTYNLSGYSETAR

Structure (SMILES) | Relative Rate of Invasion (%) (B16 melanoma cells; 1 μg/mL) | No. of Cells Invaded (B16 melanoma cells; 1 μg/mL) | Relative Rate of Invasion (%) (B16 melanoma cells; 3 μg/mL) | No. of Cells Invaded (B16 melanoma cells; 3 μg/mL) | Relative Rate of Invasion (%) (B16 melanoma cells; 10 μg/mL) | No. of Cells Invaded (B16 melanoma cells; 10 μg/mL) | inhibition at 1 µg/mL [1] | inhibition at 3 µg/mL [1] | inhibition at 10 µg/mL [1] | pIC50 (heparinase) | pIC50 [2] | Solubility in ethanol, butanol, dimethyl sulfoxide (DMSO) (Solubility in solvents) | Solubility in water, hexane and chloroform (Solubility in solvents) | inhibition at 10 µg/mL (B16 melanoma cells; Mus musculus, B16, 10 μg/mL, read-out: Inhibitory activity against invasion) | IC50 (B16 melanoma cells; Mus musculus, B16, estimated from Table 4, read-out: IC50 against invasion of B16 melanoma cells) | Physicochemical properties (comparison) (Solubility in solvents)
CCCCCCCCCCCCCCCc1cc(OC2OC(C(=O)O)C(O)C(O)C2O)cc(O)c1C(=O)Oc1cc(C)c(C(=O)O)c(O)c1 (centres unmarked) [CRM646-A] | 100.1% | 421.0 ± 15.6 | 91.4% | 384.4 ± 9.4 | 71.5% | 300.8 ± 10.2 | < 30% | < 30% | 30% | 5.52 | 5.00 | well dissolved | not dissolved easily | – | – | –
CCCCCCCCCCCCCCCc1cc(OC2OC(C(=O)OC)C(O)C(O)C2O)cc(O)c1C(=O)Oc1cc(C)c(C(=O)O)c(O)c1 (single isomer, unassigned) [CRM646-B] | 89.5% | 376.7 ± 19.7 | 36.9% | 155.3 ± 18.6 | 13.3% | 56.0 ± 8.9 | < 30% | 30% | 60% | 4.60 | – | – | – | > 80% | ~2 µg/mL (≈ 2.84 µM) | almost same as in the compound CRM646-A

— US7060714B2, “Fungal strain acremonium sp.MT70646(KCTC 0916BP), novel compounds produced by this strain and their use” (Korea Research Institute of Bioscience and Biotechnology, priority 1999, dated 2006)
